# Test results: patent US20100204202A1, “DRUG FOR ALLEVIATING MOTOR COMPLICATIONS OR PSYCHIATRIC SYMPTOMS OF PARKINSON'S DISEASE” (Asubio Pharma Co., Ltd., priority 2007, published 2010)
# “Also recorded” adds a separate entry of the source. Where a name gives a salt, the structure may show the parent alone. Read-outs that look alike come from different tables or passages of the source.
# Experiments:
# [1] = biological target: T1, human serotonin 1A receptors (Homo sapiens, UniProt P08908); assay: Agonist/antagonist assay, [35S]GTPgammaS binding, human serotonin 1A receptors; assay type: biochemical; conditions: for EC50 / Emax / IC50: Serotonin 1A; for agonist activity (in words): human serotonin 1A receptors
# T1 construct: expressed in transfected cells; host or cells: CHO-K1
# T1 sequence (P08908 1-422): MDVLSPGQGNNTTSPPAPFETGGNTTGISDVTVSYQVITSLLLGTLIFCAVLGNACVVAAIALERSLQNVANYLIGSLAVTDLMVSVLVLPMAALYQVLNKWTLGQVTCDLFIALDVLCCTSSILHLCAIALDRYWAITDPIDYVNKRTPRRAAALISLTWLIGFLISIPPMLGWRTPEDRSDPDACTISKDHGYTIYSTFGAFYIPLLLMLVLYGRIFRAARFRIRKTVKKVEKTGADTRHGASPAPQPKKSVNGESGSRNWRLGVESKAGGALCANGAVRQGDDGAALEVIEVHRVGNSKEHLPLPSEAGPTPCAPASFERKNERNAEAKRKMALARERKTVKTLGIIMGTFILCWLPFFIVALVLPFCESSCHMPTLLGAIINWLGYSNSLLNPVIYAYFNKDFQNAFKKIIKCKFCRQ
# Protocol: (§1) For the tests, membrane specimens prepared from Chinese hamster ovary (CHO-K1) cells expressing human serotonin 1A receptors, Chinese hamster ovary (CHO) cells expressing human dopamine D2L receptors, Chinese hamster ovary (CHO) cells expressing human dopamine D2S receptors and Chinese hamster ovary (CHO) cells expressing human dopamine D3 receptors were used. In the agonist assays, for the serotonin 1A receptors, [^35S] GTPγS (final concentration 0.1 nM), a GDP solution (final concentration 3 μM), the test sample solution and a membrane specimen were added to a 20 mM Hepes-NaOH buffer (pH 7.4) containing 100 mM NaCl, 3 mM MgCl2 and 10 μg/mL saponin and allowed to react at 25° C. for 30 minutes. Further, for the dopamine (D2L, D2S and D3) receptors, [^35S] GTPγS (i.e., final concentration 0.1 nM), a GDP solution (final concentration 3 μM), the test sample solution and a membrane specimen were added to a 20 mM Hepes-NaOH buffer (pH 7.4) containing 100 mM NaCl, 10 mM MgCl2, 1 mM DTT and 1 mM EDTA and allowed to react at 30° C. for 15 minutes (in the case of D2L receptors) or for 30 minutes (in the cases of D2S and D3 receptors). Further, in the antagonist assays, except for adding to the reaction solutions 10 μM 5-carboxamide tryptamine (5-CT) (in the case of serotonin 1A receptors), 3 μM dopamine (in the cases of D2L and D2S receptors), or 0.1 μM dopamine (in the case of D3 receptors), operations were performed similar to the agonistic tests. After the end of the reaction, the reaction solution was filtered with a cell harvester, the filtered filter paper was transferred to a measurement vial, a liquid scintillator was added, and the radioactivity of the [^35S] GTPγS remaining on the filter paper was determined by a liquid scintillation counter. The human serotonin 1A receptor and human dopamine (D2L, D2S, and D3) receptor agonist/antagonist activities of the test sample were expressed as the rates of increase, when making the increase in [^35S] GTPγS bonds due to 10 μM 5-CT (in the case of serotonin 1A receptors), 3 μM dopamine (in the cases of D2L and D2S receptors), or 0.1 μM dopamine (in the case of D3 receptors) 100%. From the bond increasing rate, a regression formula was used to calculate the 50% reaction concentration (EC50) and 50% inhibition concentration (IC50).
# [2] = biological target: T2, human dopamine D3 receptors (Homo sapiens, UniProt P35462); assay: Agonist/antagonist assay, [35S]GTPgammaS binding, human dopamine D3 receptors; assay type: biochemical; conditions: for agonist activity (in words) / antagonist activity (in words): human dopamine D3 receptors
# T2 construct: expressed in transfected cells; host or cells: CHO
# T2 sequence (P35462 whole entry): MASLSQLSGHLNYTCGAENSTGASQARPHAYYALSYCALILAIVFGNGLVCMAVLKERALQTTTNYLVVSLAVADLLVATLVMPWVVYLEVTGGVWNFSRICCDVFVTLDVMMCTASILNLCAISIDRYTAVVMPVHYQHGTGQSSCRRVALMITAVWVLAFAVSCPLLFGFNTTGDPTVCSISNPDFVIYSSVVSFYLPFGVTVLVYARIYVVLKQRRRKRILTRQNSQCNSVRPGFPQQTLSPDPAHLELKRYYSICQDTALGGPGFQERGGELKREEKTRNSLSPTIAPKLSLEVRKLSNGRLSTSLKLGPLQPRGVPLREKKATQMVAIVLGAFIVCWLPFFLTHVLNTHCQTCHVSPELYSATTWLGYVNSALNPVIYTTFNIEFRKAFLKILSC
# Protocol: as §1
# [3] = biological target: T1, human serotonin 1A receptors; assay: Binding affinity test on human serotonin 1A receptors ([3H]8-OH-DPAT, CHO-K1 membranes); conditions: for Ki: Serotonin 1A; for binding affinity (in words): human serotonin 1A receptors
# Protocol: For the test, membrane specimens prepared from Chinese hamster ovary (CHO-K1) cells expressing human serotonin 1A receptors were used. To a 50 mM Tris-HCl buffer (pH 7.4) including 5 mM CaCl2, 0.1% ascorbic acid, and 10 μg/mL saponin, [^3H] […] The reaction solution was allowed to react at 25° C. for 60 minutes, then the reaction solution was filtered with a cell harvester, the filtered filter paper was transferred to a measurement vial, a liquid scintillator was added and the receptor bond radioactivity remaining on the filter paper was determined by a liquid scintillation counter. The nonspecific bonds were defined as the amount of bonds in the presence of 10 μM serotonin.
# The following formula was used to calculate the binding inhibition rate: […]
# Furthermore, the inhibition constant (Ki) was calculated.
# [4] = 10 μM 5-CT = 100%, read-out: Agonist assay Emax
# [5] = with 10 μM 5-CT, read-out: Antagonist assay Emax
# [6] = Dopamine D3, 0.1 μM dopamine = 100%, read-out: Agonist assay Emax
# [7] = Dopamine D3, read-out: Agonist assay EC50
# [8] = Dopamine D3, with 0.1 μM dopamine, read-out: Antagonist assay Emax
# [9] = Dopamine D3, with 0.1 μM dopamine, read-out: Antagonist assay IC50
EC50 [1],"Emax [1, 4]",IC50 ([1]; with 10 μM 5-CT),"Emax [1, 5]",agonist activity (in words) [2],antagonist activity (in words) [2],Ki [3],EC50 [2],IC50 [2],Emax ([2]; read-out: Agonist assay Emax),Emax ([2]; read-out: Antagonist assay Emax),Compound,"Emax [2, 6]","EC50 [2, 7]","Emax [2, 8]","IC50 [2, 9]",agonist activity (in words) [1],binding affinity (in words) [3]
108 nM,100%,> 20000 nM,14%,strong agonist activity,no antagonist activity was exhibited,2.67 nM,–,–,–,–,"Cl.Cl.O=c1[nH]c2cccc(C3CCCN(Cc4cncc(-c5ccc(F)cc5)c4)C3)c2o1 (stereo not shown) [7-(1-{[5-(4-fluorophenyl)pyridin-3-yl]methyl}piperidin-3-yl)-1,3-benzoxazol-2(3H)-one dihydrochloride]",69%,1.4 nM,22%,> 500 nM,–,–
2.4 nM,100%,> 100 nM,4%,did not exhibit an agonist activity,weak antagonist activity,0.0293 nM,> 500 nM,181 nM,14%,65%,"Cl.Cl.Fc1ccc(-c2cncc(CNC[C@H]3CCc4ccccc4O3)c2)cc1 [Sarizotan, 1-[(2R)-3,4-dihydro-2H-chromen-2-yl]-N-{[5-(4-fluorophenyl)pyridin-3-yl]methyl}methanamine dihydrochloride]",–,–,–,–,particularly strong in activity,particularly strong binding affinity

Compound,EC50 [1],"Emax [1, 4]",IC50 ([1]; with 10 μM 5-CT),"Emax [1, 5]",agonist activity (in words) [2],antagonist activity (in words) [2],Ki [3],EC50 [2],IC50 [2],Emax ([2]; read-out: Agonist assay Emax),Emax ([2]; read-out: Antagonist assay Emax),"Emax [2, 6]","EC50 [2, 7]","Emax [2, 8]","IC50 [2, 9]",agonist activity (in words) [1],binding affinity (in words) [3]
"O=C1c2ccccc2OC=C(Cl)N1CCCCN1CC=C(c2ccccn2)CC1 [SUN N4057, 3-chloro-4,5-dihydro-4-{4-[4-(2-pyridyl)-1,2,3,6-tetrahydropyridin-1-yl]butyl}-1,4-benzoxazepin-5-one.dihydrochloride-dihydrate]",2.41 nM,100%,> 100 nM,3%,strong agonist activity; also recorded: has an agonist action,no antagonist activity was exhibited,0.0249 nM,–,–,–,–,77%,2.12 nM,13%,> 500 nM,particularly strong in activity; also recorded: powerful agonist action,particularly strong binding affinity
